Laboratory results published in ChEMBL document CHEMBL1201862, “PubChem BioAssay data set” (2004).
Active and inactive are the calls of the source.

Key:
Cytochrome P450 2D6 = Cytochrome P450 2D6 (Homo sapiens, UniProt P10635);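 also: CYP2D6 member of a cytochrome P450 panel assay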
[1] = growth suppression of PTEN-null colon cells, dose response, cell-based, HCT116 PTEN knockout (AID 1047); assay type: functional;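 also: HCT116 colon tumor cells with PTEN knocked out; cells exposed to compound for 60 hours before readout; potency for loss of cell viability measured by luminescence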
[2] = Luminescence Cell-Based Dose Retest to Confirm Inhibitors of Cancer Stem Cells. [Related pubchem assays (depositor defined):AID2717, AID2721]; assay type: functional; details: Homo sapiens
[3] = growth suppression of beta-catenin-knockout colon cells, dose response, cell-based, HCT116, human colon tumor (AID 1045); assay type: functional;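 also: HCT116 colon tumor cells with beta catenin knocked out; cells exposed to compound for 60 hours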
Cytochrome P450 2C9 = Cytochrome P450 2C9 (Homo sapiens, UniProt P11712)
Chain of Cytochrome P450 2C9 (P11712 whole entry): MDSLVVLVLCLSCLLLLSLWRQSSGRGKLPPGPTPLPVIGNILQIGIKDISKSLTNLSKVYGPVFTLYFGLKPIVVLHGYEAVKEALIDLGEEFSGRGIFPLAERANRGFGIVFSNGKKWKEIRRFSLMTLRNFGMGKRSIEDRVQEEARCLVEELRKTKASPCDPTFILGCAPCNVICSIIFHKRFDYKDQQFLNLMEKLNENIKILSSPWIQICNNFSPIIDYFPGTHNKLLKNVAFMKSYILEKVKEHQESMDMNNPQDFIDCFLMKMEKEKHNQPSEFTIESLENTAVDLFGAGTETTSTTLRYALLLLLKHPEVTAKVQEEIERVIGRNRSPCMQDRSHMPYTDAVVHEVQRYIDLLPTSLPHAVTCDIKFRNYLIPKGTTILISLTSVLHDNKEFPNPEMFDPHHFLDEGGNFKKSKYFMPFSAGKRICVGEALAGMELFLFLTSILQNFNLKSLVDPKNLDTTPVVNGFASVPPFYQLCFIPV

[4] = test system: Streptococcus sp. 'group A'; assay: growth inhibition of control SK(-) GAS strain, dose response, counter-screen for streptokinase expression inhibitor project, luminescence, kanamycin, BacTiterGlo, confirmation (AID 1900); assay type: functional, organism-based
Streptokinase A = target: T1, Streptokinase A (Streptococcus pyogenes serotype M1, UniProt P10520); assay: S. pyogenes streptokinase expression inhibitors, potency, dose response, plasminogen activation absorbance, OD405 (AID 1914); assay type: functional, Streptococcus pyogenes M1 GAS;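 also: secreted streptokinase activity via plasminogen activation per viability signal from cell pellet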
T1 sequence (P10520 whole entry): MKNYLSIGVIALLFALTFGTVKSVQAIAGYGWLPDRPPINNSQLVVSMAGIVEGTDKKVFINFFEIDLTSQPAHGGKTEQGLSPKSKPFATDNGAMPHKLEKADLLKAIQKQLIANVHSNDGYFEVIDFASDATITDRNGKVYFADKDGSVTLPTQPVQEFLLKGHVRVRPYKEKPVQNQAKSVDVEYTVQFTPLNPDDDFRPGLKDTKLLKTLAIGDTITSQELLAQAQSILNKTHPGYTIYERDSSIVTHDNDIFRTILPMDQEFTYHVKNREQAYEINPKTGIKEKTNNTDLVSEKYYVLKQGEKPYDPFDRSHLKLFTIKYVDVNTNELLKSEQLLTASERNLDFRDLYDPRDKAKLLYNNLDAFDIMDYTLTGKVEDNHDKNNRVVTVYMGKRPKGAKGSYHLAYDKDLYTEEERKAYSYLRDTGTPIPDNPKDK

H9c2 = assay: cells; assay type: functional, cell-based; details: Rattus norvegicus, H9c2, Myocardium;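 also: confirmatory concentration-response retest of ultra-high-throughput screening hits for modulation of myocardial damage; cell death induced by hydrogen peroxide oxidative stress; compound pretreatment for 60 min then peroxide exposure for 2 h; potency is for protecting the cells against peroxide damage rather than for killing them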
Streptococcus = assay: Group A Streptococcus viability loss, dose response, counter-screen for streptokinase expression inhibitor project, luminescence, BacTiterGlo (AID 1915); assay type: functional, organism-based;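 also: potency for reduction of bacterial viability or growth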
[5] = inhibitors of intracellular T. cruzi replication, confirmation, NIH3T3 host cells, beta-gal luminescence (AID 2044); assay type: functional, cell-based;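 also: intracellular parasites grown in NIH/3T3 mouse fibroblasts as host cells; luminescent beta-galactosidase reporter signal from transgenic T. cruzi replicating inside host cells; inhibitors lower the luminescence signal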
[6] = cytotoxicity toward NIH3T3 fibroblasts, dose response, counter-screen, cell-based, ATP luminescence, mouse fibroblasts (AID 2010); assay type: functional;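 also: cells exposed to compound for about 90 hours before reading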
cells [7] = assay type: functional, cell-based
cells [8] = assay type: functional, cell-based; remark: listed apart in the source
[9] = target: T2, Heat shock factor protein 1 (Mus musculus, UniProt P38532); assay: HSF1 potentiators in luciferase reporter cells, confirmation, cell-based, NIH3T3, luminescence, dose retest (AID 435004); assay type: functional;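 also: stress induced by proteasome inhibitor MG132 added 30 min after compound; luciferase reporter driven by HSF1 response element in NIH3T3 cells; actives raise luminescence as potentiators of the MG132 stress response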
T2 sequence (P38532 whole entry): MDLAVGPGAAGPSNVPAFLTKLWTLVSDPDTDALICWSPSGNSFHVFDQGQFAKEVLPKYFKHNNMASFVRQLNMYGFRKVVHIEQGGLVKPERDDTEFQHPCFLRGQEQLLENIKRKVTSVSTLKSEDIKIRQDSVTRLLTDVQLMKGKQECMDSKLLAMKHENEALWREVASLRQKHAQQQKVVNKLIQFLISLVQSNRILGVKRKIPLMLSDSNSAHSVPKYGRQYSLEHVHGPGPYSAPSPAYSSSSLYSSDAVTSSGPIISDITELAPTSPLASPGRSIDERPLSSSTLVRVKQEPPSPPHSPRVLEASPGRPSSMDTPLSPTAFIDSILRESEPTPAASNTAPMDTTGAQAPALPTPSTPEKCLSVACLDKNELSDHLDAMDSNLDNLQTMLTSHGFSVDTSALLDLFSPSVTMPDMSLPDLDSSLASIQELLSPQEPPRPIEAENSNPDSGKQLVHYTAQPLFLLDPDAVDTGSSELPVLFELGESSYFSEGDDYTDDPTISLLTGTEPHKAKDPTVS

[10] = microbe, parasite or virus in culture; assay type: functional; details: Mycobacterium tuberculosis
[11] = Luminescence Cell-Based Dose Confirmation HTS to Identify Inhibitors of Platelet Dense Granule Release. [Related pubchem assays: 1663 (Primary HTS), 1678 (Summary of Project)]; assay type: functional
[12] = target: Luciferin 4-monooxygenase (Photinus pyralis, UniProt P08659); assay: firefly luciferase enzyme inhibitors, dose response, biochemical, luminescence (AID 1891)
Chain of Luciferin 4-monooxygenase (P08659 whole entry): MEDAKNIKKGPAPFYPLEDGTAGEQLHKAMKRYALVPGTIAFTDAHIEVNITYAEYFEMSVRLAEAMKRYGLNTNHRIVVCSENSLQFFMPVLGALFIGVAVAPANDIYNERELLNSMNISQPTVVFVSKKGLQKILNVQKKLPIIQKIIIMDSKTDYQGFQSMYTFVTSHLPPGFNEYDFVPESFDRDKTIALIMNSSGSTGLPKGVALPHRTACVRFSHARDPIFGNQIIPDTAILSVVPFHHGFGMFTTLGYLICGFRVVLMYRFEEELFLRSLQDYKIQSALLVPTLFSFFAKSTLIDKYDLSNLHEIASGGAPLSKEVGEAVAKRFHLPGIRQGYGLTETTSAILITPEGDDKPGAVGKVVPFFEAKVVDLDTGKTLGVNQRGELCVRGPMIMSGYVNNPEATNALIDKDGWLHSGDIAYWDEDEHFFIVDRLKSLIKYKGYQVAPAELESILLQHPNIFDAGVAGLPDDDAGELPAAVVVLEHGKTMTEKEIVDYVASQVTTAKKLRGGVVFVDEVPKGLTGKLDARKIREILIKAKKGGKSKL

[13] = target: T2, Heat shock factor protein 1; assay: inhibition of MG132-induced HSE-luciferase signal, confirmation, cell-based, NIH3T3, luminescence, dose retest (AID 2382); assay type: functional;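 also: NIH3T3 fibroblasts with HSF1-driven luciferase reporter stressed by proteasome inhibitor MG132; luminescence from HSF1-driven luciferase expression after 8 hours of MG132 stress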
[14] = HepG2 cell cytotoxicity, dose response, cytotoxicity control for Shn3 inhibitor project, CellTiter-Glo, cherry-picked (AID 624134); assay type: functional, cell-based
[15] = inhibitors of clade B AD8 Env fusion, dose response, cell-based, cherry-pick (AID 652062); assay type: functional;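 also: luciferase signal from cell-cell fusion driven by HIV-1 clade B AD8 Env; potency is for inhibitors of fusion seen as a drop in luminescence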
[16] = ZM109 Env clade C HIV-1 fusion inhibitors, dose response, HeLa effector, CEM target cells, luciferase, cherry-pick (AID 652058); assay type: functional, cell-based
[17] = Shn3 3'UTR reporter inhibitors, dose response, cell-based, Clone20 osteoblasts, firefly luciferase, cherry-picked (AID 624132); assay type: functional;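 also: firefly luciferase luminescence from reporter carrying the Shn3 3'UTR in osteoblasts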
[18] = inhibitors of HIV Env-driven cell fusion, dose response, cherry-pick (AID 652057); assay type: functional, cell-based
Paired box protein Pax-8 = Paired box protein Pax-8 (Homo sapiens, UniProt Q06710); assay: inhibitors of PAX8-driven TPO luciferase reporter, dose response, RMG-I cells, cherry-pick (AID 687027); assay type: functional, cell-based;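 also: luciferase reporter driven by Pax8 target thyroperoxidase promoter measured by SteadyGlo luminescence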
Chain of Paired box protein Pax-8 (Q06710 whole entry): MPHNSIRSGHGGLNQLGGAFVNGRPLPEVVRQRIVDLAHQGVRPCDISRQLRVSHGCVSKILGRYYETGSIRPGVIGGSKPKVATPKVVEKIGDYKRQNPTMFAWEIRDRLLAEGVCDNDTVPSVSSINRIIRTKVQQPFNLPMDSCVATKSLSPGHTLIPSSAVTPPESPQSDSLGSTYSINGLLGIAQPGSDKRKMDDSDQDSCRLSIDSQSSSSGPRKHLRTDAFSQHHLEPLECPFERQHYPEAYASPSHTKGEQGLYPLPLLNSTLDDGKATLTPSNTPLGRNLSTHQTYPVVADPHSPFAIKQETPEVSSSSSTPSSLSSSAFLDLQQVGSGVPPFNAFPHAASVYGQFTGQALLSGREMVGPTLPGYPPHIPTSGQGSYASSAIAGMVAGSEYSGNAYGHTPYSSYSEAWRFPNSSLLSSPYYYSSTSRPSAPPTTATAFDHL

Chain of Cytochrome P450 2D6 (P10635 whole entry): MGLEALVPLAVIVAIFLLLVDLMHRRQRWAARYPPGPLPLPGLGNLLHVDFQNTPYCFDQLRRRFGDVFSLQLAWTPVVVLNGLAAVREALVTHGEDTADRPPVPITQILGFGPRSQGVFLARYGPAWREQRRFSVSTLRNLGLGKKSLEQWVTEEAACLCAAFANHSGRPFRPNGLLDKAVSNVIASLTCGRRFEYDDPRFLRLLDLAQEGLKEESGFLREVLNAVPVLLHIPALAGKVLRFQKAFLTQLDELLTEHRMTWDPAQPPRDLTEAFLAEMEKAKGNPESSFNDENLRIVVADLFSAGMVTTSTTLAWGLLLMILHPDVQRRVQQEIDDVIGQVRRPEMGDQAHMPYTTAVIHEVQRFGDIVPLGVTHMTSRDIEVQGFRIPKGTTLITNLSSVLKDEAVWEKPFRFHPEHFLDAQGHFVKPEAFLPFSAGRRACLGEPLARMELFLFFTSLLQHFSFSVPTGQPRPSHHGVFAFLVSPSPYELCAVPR

With `CC1CC/C(=C\c2ccc3c(c2)OCO3)C(=O)/C1=C/c1ccc2c(c1)OCO2` (stereo unspecified) the AC50 (Cytochrome P450 2D6) was 2.51 µM (inconclusive), the EC50 [1] was 13.8 µM (active) and the AC50 [2] was 2.92 µM (active). For the same molecule, the EC50 [3] was 14.3 µM (active) and the AC50 (Cytochrome P450 2C9) was 6.31 µM (inconclusive).

In the case of `O=C(Nc1nnc(-c2ccco2)o1)c1ccc2ccccc2c1`, the EC50 [4] was 12.8 µM (active), the EC50 (Streptokinase A) was > 150 µM (not active) and the IC50 (H9c2) was > 79 µM (inactive). The EC50 (Streptococcus) was > 150 µM (not active).

In the case of `Cc1cc(C)cc(-n2c(N)c(C(=O)Nc3c(C)n(C)n(-c4ccccc4)c3=O)c3nc4ccccc4nc32)c1`, the EC50 [1] was 11.8 µM (active), the EC50 [5] was 1.21 µM (active) and the EC50 [3] was 13 µM (active). The EC50 [6] was > 60 µM (not active).

For `O=C(NCCCN1CCOCC1)c1cc(-c2ccccc2)on1`, the EC50 (cells [7]) was 11.5 µM (active) and the EC50 (cells [8]) was > 350 µM (not active).

In the case of `CN(C)CCNC(=O)/C(=C/c1ccc(-c2cccc(Cl)c2)o1)NC(=O)c1ccccc1`, the EC50 [1] was 10.3 µM (active), the EC50 [3] was 10.3 µM (active) and the EC50 [9] was > 260 µM (inactive).

In the case of `Cc1cnc(NC(=O)NCC2CCCC(CNC(=O)Nc3ncc(C)s3)C2)s1` (stereo unspecified), the CC50 [10] was > 40 µM (active).

With `O=C(CNC(=O)c1nc[nH]c1C(=O)NCC(=O)OCc1ccccc1)OCc1ccccc1` the IC50 (H9c2) was 41 µM (inactive).

With `O=C(Cn1cccc1)N1CCN(c2ccc(F)cc2)CC1` the EC50 [11] was > 112 µM (not active) and the EC50 [12] was > 112 µM (not active).

With `COc1ccc2nc(O)c(CN(Cc3cccnc3)S(=O)(=O)c3ccccc3F)cc2c1` the EC50 [13] was 6.06 µM (active) and the IC50 (H9c2) was > 79 µM (inactive).

With `COc1ccc(/C=C2\SC(=O)N(CCC(=O)N(C)C3CCS(=O)(=O)C3)C2=O)cc1` (stereo unspecified) the EC50 (cells [7]) was > 350 µM (not active) and the EC50 (cells [8]) was > 350 µM (not active).

In the case of `CCC12CN(S(=O)(=O)c3ccc(C)cc3)CC(CC)(CN(S(=O)(=O)c3ccc(C)cc3)C1)C2=O`, the AC50 [14] was 66.7 µM (active), the AC50 [15] was 22 µM (active) and the AC50 [16] was 42.7 µM (active). The AC50 [17] was 3.48 µM (active) and the AC50 [18] was 2.44 µM (active).

For `Cc1csc(SCc2nc(O)c3c4c(sc3n2)CCC4)n1`, the IC50 (H9c2) was 17.1 µM (active).

In the case of `Cc1ccc(S(=O)(=O)N(C)C[C@@H]2Oc3ccc(NS(=O)(=O)c4ccccc4)cc3CC(=O)N([C@H](C)CO)C[C@@H]2C)cc1`, the AC50 [15] was 26.6 µM (active), the AC50 [16] was 8.38 µM (active) and the AC50 [18] was 2.75 µM (active).

For `O=[N+]([O-])c1cc2c(ccc3occc32)o1`, the AC50 (Paired box protein Pax-8) was 2.49 µM (active).

In the case of `CN(Cc1ccccc1)N=Nc1[nH]cnc1C(N)=O`, the AC50 (Paired box protein Pax-8) was 21.2 µM (active).

In the case of `CS(=O)(=O)Nc1ccc2c(c1)[C@H]1C[C@H](CC(=O)NCc3ccc(-c4ccccc4)cc3)O[C@H](CO)[C@H]1O2`, the AC50 [15] was 39 µM (active).

In the case of `C[C@H](CO)N1C[C@H](C)[C@H](CN(C)S(=O)(=O)c2ccccc2)Oc2ccc(NS(=O)(=O)c3ccc(F)cc3)cc2CC1=O`, the AC50 [16] was 28.8 µM (active) and the AC50 [18] was 15.1 µM (active).

With `Cc1ccc(S(=O)(=O)N2CCN(CC(=O)N/N=C\C(Cl)=C\c3ccccc3)CC2)cc1` the EC50 [1] was 44.2 µM (active) and the EC50 [3] was 39.3 µM (active).

In the case of `COc1c(/C=N/NC(=O)c2ccccc2O)c(CCN(C)C(C)=O)cc2c1OCO2`, the EC50 [11] was > 112 µM (not active) and the EC50 [12] was > 112 µM (not active).

With `O=C(O)CCCCCCC1C(=O)NC(=O)N1CCC(O)C1CCCCC1` (stereo unspecified) the EC50 [11] was < 0.088 µM (active) and the EC50 [12] was > 112 µM (not active).
